# Reference: ChEMBL document CHEMBL1201862, “PubChem BioAssay data set” (2004)
#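 Cells were grown in 96-well plates and exposed to each compound for 48 hours at five concentrations; endpoints were interpolated linearly between bracketing concentrations, or set to the highest concentration if not reached. Here, GI50 denotes the concentration required for 50% inhibition of growth.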 Calls of active or inactive are those of the source. No stated cut-off is given here; in the data, active = GI50 up to about 1.1 µM and inactive = higher. Peptide text beside a SMILES is read from it.
# How the values were obtained:
# Assay in all cases: NCI anticancer screen, dose series, 48 h
# 786-0 = tested on: 786-0
# A549 = tested on: A549
# BT-549 = tested on: BT-549
# HL-60 = tested on: HL-60
# K562 = tested on: K562
# KM12 = tested on: KM12
# M14 = tested on: M14
# MDA-MB-231 = tested on: MDA-MB-231
# NCI-H460 = tested on: NCI-H460
# NCI-H522 = tested on: NCI-H522
# OVCAR-4 = tested on: OVCAR-4
# OVCAR-5 = tested on: OVCAR-5
# RPMI-8226 = tested on: RPMI-8226
# SF-295 = tested on: SF-295
# SN12C = tested on: SN12C
# SR = tested on: SR
# SW-620 = tested on: SW-620
# T47D = tested on: T47D
# U-251 = tested on: U-251
# UACC-257 = tested on: UACC-257
SMILES,GI50 (786-0),GI50 (A549),GI50 (BT-549),GI50 (HL-60),GI50 (K562),GI50 (KM12),GI50 (M14),GI50 (MDA-MB-231),GI50 (NCI-H460),GI50 (NCI-H522),GI50 (OVCAR-4),GI50 (OVCAR-5),GI50 (RPMI-8226),GI50 (SF-295),GI50 (SN12C),GI50 (SR),GI50 (SW-620),GI50 (T47D),GI50 (U-251),GI50 (UACC-257)
O=c1c2cccnc2cc(-c2ccccc2)n1CCO,> 100 µM (inactive),> 100 µM (inactive),> 100 µM (inactive),> 100 µM (inactive),> 100 µM (inactive),> 100 µM (inactive),> 100 µM (inactive),> 100 µM (inactive),> 100 µM (inactive),> 100 µM (inactive),> 100 µM (inactive),> 100 µM (inactive),> 100 µM (inactive),> 100 µM (inactive),> 100 µM (inactive),> 100 µM (inactive),> 100 µM (inactive),> 100 µM (inactive),> 100 µM (inactive),> 100 µM (inactive)
Cc1ccc([S@+]([O-])c2occc2C=O)cc1,3.95 µM (inactive),19.6 µM (inactive),12 µM (inactive),1.8 µM (inactive),1.85 µM (inactive),17.2 µM (inactive),6.9 µM (inactive),8.65 µM (inactive),9.91 µM (inactive),15.4 µM (inactive),9.98 µM (inactive),19.2 µM (inactive),1.91 µM (inactive),17.7 µM (inactive),7.26 µM (inactive),1.71 µM (inactive),1.93 µM (inactive),2.43 µM (inactive),12.9 µM (inactive),12.4 µM (inactive)
O=C1c2cc3c(cc2CC1Br)CCC3 (stereo not given),1.8 µM (inactive),18.2 µM (inactive),1.96 µM (inactive),2.9 µM (inactive),1.39 µM (inactive),7 µM (inactive),1.45 µM (inactive),4.47 µM (inactive),12.1 µM (inactive),1.45 µM (inactive),1.85 µM (inactive),5.64 µM (inactive),1.82 µM (inactive),5.19 µM (inactive),1.7 µM (inactive),0.787 µM (active),1.42 µM (inactive),2.39 µM (inactive),3.26 µM (inactive),2.23 µM (inactive)
CN(C)Cc1cc(/N=N/c2ccccc2)cc(CN(C)C)c1O,36.2 µM (inactive),> 100 µM (inactive),> 100 µM (inactive),21.9 µM (inactive),97.5 µM (inactive),98.6 µM (inactive),> 100 µM (inactive),71 µM (inactive),47.1 µM (inactive),> 100 µM (inactive),35.8 µM (inactive),> 100 µM (inactive),80.5 µM (inactive),> 100 µM (inactive),> 100 µM (inactive),> 100 µM (inactive),> 100 µM (inactive),> 100 µM (inactive),99.1 µM (inactive),> 100 µM (inactive)
CCC(C)C(NC(=O)C(NC(=O)C(CC(N)=O)NC(=O)CN)C(C)O)C(=O)NC(C(=O)NC(C)C(=O)NC(C(=O)NC(CCC(=O)O)C(=O)NC(CC(C)C)C(=O)NC(CC(=O)O)C(=O)NC(C(=O)NC(Cc1ccc(O)cc1)C(=O)N1CCCC1C(=O)O)C(C)O)C(C)C)C(C)C (stereo not given) (H-GNTIVAVELDTYP-OH; configuration not given here),> 50 µM (inactive),> 50 µM (inactive),> 50 µM (inactive),> 50 µM (inactive),> 50 µM (inactive),> 50 µM (inactive),> 50 µM (inactive),18.9 µM (inactive),> 50 µM (inactive),> 50 µM (inactive),> 50 µM (inactive),> 50 µM (inactive),> 50 µM (inactive),> 50 µM (inactive),> 50 µM (inactive),> 50 µM (inactive),> 50 µM (inactive),> 50 µM (inactive),> 50 µM (inactive),> 50 µM (inactive)
